Measured values published in ChEMBL document CHEMBL1201862, “PubChem BioAssay data set” (2004).
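In this assay, cells in 96-well plates receive the compound at five concentrations for 48 hours. Endpoints are linearly interpolated between the surrounding concentrations. GI50: concentration for 50% inhibition of growth.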 Activity calls are given as the source filed them. Cut-off read from the data, not from the text of the source: active = GI50 up to about 1.1 µM and inactive = higher. Where a SMILES comes first, the peptide text is derived from it. [ ]: non-standard residue; d: D form. The star is where a group is joined. Octanoyl = CCCCCCCC(=O)*; Aib = CC(C)(N)C(=O)O; tBu = CC(C)(C)*

Experiments:
Experiment in all cases: NCI-60 cell line screen, 48 h
CCRF-CEM = system: CCRF-CEM
NCI/ADR-RES = system: NCI/ADR-RES
NCI-H23 = system: NCI-H23
RPMI-8226 = system: RPMI-8226
SNB-19 = system: SNB-19
SF-295 = system: SF-295
IGROV-1 = system: IGROV-1
MDA-N = system: MDA-N
M14 = system: M14
HOP-92 = system: HOP-92
HOP-62 = system: HOP-62
A498 = system: A498
SF-268 = system: SF-268
NCI-H226 = system: NCI-H226
HCC 2998 = system: HCC 2998
SK-MEL-28 = system: SK-MEL-28
UO-31 = system: UO-31
LOX IMVI = system: LOX IMVI
HL-60 = system: HL-60
NCI-H522 = system: NCI-H522

SMILES	GI50 (CCRF-CEM)	GI50 (NCI/ADR-RES)	GI50 (NCI-H23)	GI50 (RPMI-8226)	GI50 (SNB-19)	GI50 (SF-295)	GI50 (IGROV-1)	GI50 (MDA-N)	GI50 (M14)	GI50 (HOP-92)	GI50 (HOP-62)	GI50 (A498)	GI50 (SF-268)	GI50 (NCI-H226)	GI50 (HCC 2998)	GI50 (SK-MEL-28)	GI50 (UO-31)	GI50 (LOX IMVI)	GI50 (HL-60)	GI50 (NCI-H522)
O=C(O)C1CC(C2CCCCN2)CN2CCCCC12 (configuration not stated)	> 100 µM (inactive)	> 100 µM (inactive)	> 100 µM (inactive)	> 100 µM (inactive)	> 100 µM (inactive)	> 100 µM (inactive)	> 100 µM (inactive)	> 100 µM (inactive)	> 100 µM (inactive)	> 100 µM (inactive)	> 100 µM (inactive)	> 100 µM (inactive)	> 100 µM (inactive)	> 100 µM (inactive)	> 100 µM (inactive)	> 100 µM (inactive)	> 100 µM (inactive)	> 100 µM (inactive)	–	–
COc1ccc2oc(=N)c(C(=O)Nc3cccc4ccccc34)cc2c1	2.33 µM (inactive)	25.8 µM (inactive)	29.4 µM (inactive)	14.1 µM (inactive)	13.5 µM (inactive)	5.41 µM (inactive)	–	0.456 µM (active)	17.9 µM (inactive)	–	11 µM (inactive)	13.2 µM (inactive)	25.9 µM (inactive)	25.5 µM (inactive)	58.7 µM (inactive)	> 100 µM (inactive)	13 µM (inactive)	–	23.7 µM (inactive)	–
O=C(CSc1n[nH]c(=O)[nH]c1=O)NNC(=O)c1cccc2nc3ccccc3nc12	> 100 µM (inactive)	> 100 µM (inactive)	35.9 µM (inactive)	> 100 µM (inactive)	64.1 µM (inactive)	59.3 µM (inactive)	> 100 µM (inactive)	35.6 µM (inactive)	68.1 µM (inactive)	> 100 µM (inactive)	> 100 µM (inactive)	> 100 µM (inactive)	> 100 µM (inactive)	90.4 µM (inactive)	40.8 µM (inactive)	> 100 µM (inactive)	–	46.1 µM (inactive)	> 100 µM (inactive)	–
C=C(Br)C/N=C/N(C)C	> 100 µM (inactive)	> 100 µM (inactive)	> 100 µM (inactive)	> 100 µM (inactive)	> 100 µM (inactive)	> 100 µM (inactive)	> 100 µM (inactive)	> 100 µM (inactive)	> 100 µM (inactive)	> 100 µM (inactive)	> 100 µM (inactive)	> 100 µM (inactive)	> 100 µM (inactive)	> 100 µM (inactive)	–	> 100 µM (inactive)	> 100 µM (inactive)	> 100 µM (inactive)	> 100 µM (inactive)	> 100 µM (inactive)
O=C(CNc1ccccn1)Nn1cnc2ccc(S(=O)(=O)Nc3ccccn3)cc2c1=O	> 100 µM (inactive)	> 100 µM (inactive)	> 100 µM (inactive)	> 100 µM (inactive)	> 100 µM (inactive)	> 100 µM (inactive)	70.1 µM (inactive)	> 100 µM (inactive)	> 100 µM (inactive)	> 100 µM (inactive)	> 100 µM (inactive)	–	> 100 µM (inactive)	> 100 µM (inactive)	> 100 µM (inactive)	> 100 µM (inactive)	> 100 µM (inactive)	> 100 µM (inactive)	> 100 µM (inactive)	> 100 µM (inactive)
CCOCCOC(=O)C1CCC(=O)N1CN(C(C)=O)c1cc(OC)ccc1OC (configuration not stated)	–	> 100 µM (inactive)	> 100 µM (inactive)	> 100 µM (inactive)	> 100 µM (inactive)	> 100 µM (inactive)	> 100 µM (inactive)	> 100 µM (inactive)	> 100 µM (inactive)	> 100 µM (inactive)	> 100 µM (inactive)	> 100 µM (inactive)	> 100 µM (inactive)	> 100 µM (inactive)	–	> 100 µM (inactive)	> 100 µM (inactive)	> 100 µM (inactive)	–	> 100 µM (inactive)
Cc1cc(=O)oc2c3c(ccc12)OC(c1ccc(Br)cc1)CC3=O (configuration not stated)	2.21 µM (inactive)	12.5 µM (inactive)	12.1 µM (inactive)	4.04 µM (inactive)	5.31 µM (inactive)	10.7 µM (inactive)	10.7 µM (inactive)	8.13 µM (inactive)	10.4 µM (inactive)	–	7.69 µM (inactive)	–	10.2 µM (inactive)	18 µM (inactive)	14.6 µM (inactive)	8.67 µM (inactive)	10.3 µM (inactive)	2.98 µM (inactive)	–	4.42 µM (inactive)
CC(C)CC(NC=O)C(=O)NC(Cc1ccccc1)NC(=O)CNC(=O)C(C)NC(=O)OC(C)(C)C (configuration not stated)	–	> 100 µM (inactive)	> 100 µM (inactive)	> 100 µM (inactive)	> 100 µM (inactive)	> 100 µM (inactive)	> 100 µM (inactive)	> 100 µM (inactive)	> 100 µM (inactive)	> 100 µM (inactive)	> 100 µM (inactive)	21.9 µM (inactive)	> 100 µM (inactive)	> 100 µM (inactive)	–	> 100 µM (inactive)	> 100 µM (inactive)	> 100 µM (inactive)	> 100 µM (inactive)	> 100 µM (inactive)
CC1=CC(=O)/C(=C/n2c(=S)[nH]c3ccc([N+](=O)[O-])cc32)C(=O)O1	> 100 µM (inactive)	> 100 µM (inactive)	> 100 µM (inactive)	> 100 µM (inactive)	> 100 µM (inactive)	> 100 µM (inactive)	> 100 µM (inactive)	> 100 µM (inactive)	> 100 µM (inactive)	> 100 µM (inactive)	> 100 µM (inactive)	–	> 100 µM (inactive)	> 100 µM (inactive)	> 100 µM (inactive)	> 100 µM (inactive)	> 100 µM (inactive)	> 100 µM (inactive)	2.09 µM (inactive)	> 100 µM (inactive)
O=C1CS(=O)(=O)C(c2cccc(Oc3ccccc3)c2)N1c1ccc(Cl)cc1 (configuration not stated)	25.6 µM (inactive)	18.9 µM (inactive)	21.1 µM (inactive)	–	46.7 µM (inactive)	26.5 µM (inactive)	14.3 µM (inactive)	16.8 µM (inactive)	18.5 µM (inactive)	6.14 µM (inactive)	46.7 µM (inactive)	–	25.1 µM (inactive)	21.9 µM (inactive)	3.4 µM (inactive)	32.4 µM (inactive)	28.6 µM (inactive)	14.4 µM (inactive)	24.2 µM (inactive)	16.8 µM (inactive)
CC(C)(C)n1c(=O)[nH]n(C2NN=Cc3cccc4cccc2c34)c1=O (configuration not stated)	11.5 µM (inactive)	32.8 µM (inactive)	31.6 µM (inactive)	16.3 µM (inactive)	34.9 µM (inactive)	–	–	26.4 µM (inactive)	48 µM (inactive)	–	–	25.5 µM (inactive)	26.1 µM (inactive)	23.2 µM (inactive)	39.5 µM (inactive)	57.3 µM (inactive)	14.1 µM (inactive)	26.9 µM (inactive)	12.9 µM (inactive)	–
CC(C)n1c(=O)c2nn3c(=O)n(C(C)C)c(=O)c3nn2c1=O	> 100 µM (inactive)	> 100 µM (inactive)	> 100 µM (inactive)	–	> 100 µM (inactive)	> 100 µM (inactive)	> 100 µM (inactive)	> 100 µM (inactive)	> 100 µM (inactive)	> 100 µM (inactive)	> 100 µM (inactive)	> 100 µM (inactive)	> 100 µM (inactive)	> 100 µM (inactive)	> 100 µM (inactive)	> 100 µM (inactive)	–	> 100 µM (inactive)	> 100 µM (inactive)	–
NNC(=O)c1c(-c2cccnc2)cnc2ccccc12	> 100 µM (inactive)	> 100 µM (inactive)	> 100 µM (inactive)	> 100 µM (inactive)	> 100 µM (inactive)	> 100 µM (inactive)	> 100 µM (inactive)	> 100 µM (inactive)	> 100 µM (inactive)	> 100 µM (inactive)	> 100 µM (inactive)	–	> 100 µM (inactive)	> 100 µM (inactive)	> 100 µM (inactive)	> 100 µM (inactive)	> 100 µM (inactive)	–	> 100 µM (inactive)	> 100 µM (inactive)
CCCCCCCC(=O)NC(C)(C)C(=O)NC(COC(C)(C)C)C(=O)NC(CC(C)C)C(=O)NC(C)(C)C(=O)NC(COC(C)(C)C)C(=O)NC(COC(C)(C)C)C(=O)NC(CC(C)C)C(=O)NC(C)(C)C(=O)NC(COC(C)(C)C)C(=O)NC(C(=O)NC(CC(C)C)C(=O)OC)C(C)CC (configuration not stated) (Octanoyl-[Aib]S(tBu)L[Aib]S(tBu)S(tBu)L[Aib]S(tBu)IL-OMe; configuration not given here)	4.79 µM (inactive)	> 25 µM (inactive)	4.7 µM (inactive)	2.72 µM (inactive)	7.55 µM (inactive)	6.4 µM (inactive)	5.7 µM (inactive)	8.65 µM (inactive)	6.32 µM (inactive)	4.43 µM (inactive)	9.31 µM (inactive)	5.5 µM (inactive)	9.95 µM (inactive)	7.33 µM (inactive)	–	14.4 µM (inactive)	14.6 µM (inactive)	5.61 µM (inactive)	6.46 µM (inactive)	6.41 µM (inactive)
O=C(O)c1cc(N(Cc2ccccc2O)Cc2cc(O)ccc2O)ccc1O [LAVENDUSTIN A]	45.4 µM (inactive)	> 100 µM (inactive)	> 100 µM (inactive)	> 100 µM (inactive)	> 100 µM (inactive)	> 100 µM (inactive)	> 100 µM (inactive)	> 100 µM (inactive)	> 100 µM (inactive)	> 100 µM (inactive)	> 100 µM (inactive)	> 100 µM (inactive)	> 100 µM (inactive)	> 100 µM (inactive)	> 100 µM (inactive)	> 100 µM (inactive)	> 100 µM (inactive)	34.9 µM (inactive)	> 100 µM (inactive)	–
